Reference: article PMC10606064, “2-Aminothiazole-Flavonoid Hybrid Derivatives Binding to Tau Protein and Responsible for Antitumor Activity in Glioblastoma” (International Journal of Molecular Sciences, 2023)

How the values were obtained:
[1] = target: T1, full-length human Tau (hTau40) (Homo sapiens, UniProt P10636); test: Tau oligomerization inhibition assay (heparin-induced, thioflavin S fluorescence); assay type: biochemical; details: 2 µM Tau, heparin-induced, ThS; buffer A pH 6.9; 25 °C per table footnote (37 °C in method); mean ± SD; read-out: Inhibition of Aggregation IC50
T1 construct: The full-length human Tau (hTau40) was expressed in a transformed E. coli BL21 (DE3) strain; made in house; host or cells: E. coli BL21 (DE3)
Description: Tau oligomerization inhibition assay was performed at 37 °C in 96-well plates by monitoring thioflavin-S fluorescence at 520 nm after excitation at 440 nm using a microplate reader (POLARstar Omega system, BMG Labtech, Paris, France). The Tau oligomerization process was induced by heparin. […] The plates were shaken at 200 rpm for 10 s before each measurement. The real value of fluorescence at the plateau was determined using SciDAVis v1.23 software. Data were fitted to the SciDAVis built-in ExpGrowth equation by means of nonlinear least-squares regression analysis. Y = Y0 + A × exp(x/t)(1)
The unscaled Levenberg–Marquardt algorithm was used, and initial values were given to Y0, A, and t. The final Y0 value of the model corresponds to the plateau value. The plateau values were then used to calculate the Tau oligomerization inhibition percentage. The IC50 for each compound was calculated from the scatter plot of Tau oligomerization inhibition (in percentage) as a function of log10 of compound concentration. The IC50 value (in µM) thus corresponds to ten raised to the power of […].

[2] = system: U87 shCTRL cells; test: MTT cell viability assay, U87 shCTRL (expressing Tau); assay type: cell-based, human; details: for IC50: Homo sapiens, U87 shCTRL, 72 h, MTT, mean ± SEM, read-out: IC50 (metabolic activity)
Description: All cell lines were purchased from ATCC, Gaithersburg, MD, USA. Cells from human glioblastoma (clones U87 wt, HTB-14; U118, HTB-15; U251, HTB-12; U138, HTB-16), neuroblastoma (clone SK-N-SH, HTB-11), and colorectal adenocarcinoma (clone Caco-2, HTB-37) were routinely grown at 37 °C in a humidified atmosphere containing 5% CO2. Cells were maintained by regular passages in complete media supplemented with 10% FBS, 2mM of L-glutamine, 100 U/mL of penicillin, and 50 U/mL of streptomycin (Invitrogen, Paris, France). For U87 wt, U251, U138, and SK-N-SH cells, the medium consisted of EMEM (Lonza, Levallois Perret, France). U118 and Caco-2 lines were maintained in DMEM. The U87 wt-derived lines, U87 shCTRL, and U87 shTau2 cells were continuously maintained in complete EMEM medium supplemented with 0.4 µg/mL of puromycin. The shRNA sequences and the protocol of clone selection and Tau downregulation were previously described in [20]. For Tau expression rescue, the U87 shCTRL and U87 shTau cells were seeded two days prior to experiments at 4.10^5 cells per 60 mm dish in 6 mL of complete medium. Cells were transfected using LipofectAmine 2000 according to Invitrogen instructions and 8 µg EGFP-free plasmid constructs (for U87 shCTRL) and EGFP-hTau40 plasmid constructs (for U87 shTau) were used in total. One day prior to experiments, all cells were plated in a 96-well microtiter plate to prepare for viability assays. Cells were free from mycoplasma as determined by mycoalert tests (Lonza).
Cells harvested from sub-confluent monolayers were seeded at 15,000 cells per mL in a 96-well microtiter plate (Cambridge Technology, Labège, France) and cultured for 24 h under standard conditions. Standard medium was then replaced by fresh medium containing no drugs or compounds at different concentrations. The surviving cells were quantified after 72 h by the MTT assay, according to the manufacturer’s instructions. Briefly, 20 µL of 3-(4,5-diMethylThiazol-2-yl)-2,5diphenyl Tetrazolium bromide (MTT) solution at 5 mg.mL^−1 was added to cells for 3 h at 37 °C. The supernatant was discarded and replaced by 100 µL of dimethyl sulfoxide to dissolve formazan crystals. The absorbance was then read at 600 nm by spectrophotometry. For all concentrations of a given compound, cell viability was expressed as the percentage of the ratio between the mean absorbance of treated cells and the mean absorbance of untreated cells. Three independent experiments were performed, and the data were expressed as percentage of survival (using the untreated cells as 100%) and subjected to statistical analysis (n = 3). The IC50 was calculated using the Chou and Talalay method.

T1 sequence (P10636 1-441 isoform P10636-8): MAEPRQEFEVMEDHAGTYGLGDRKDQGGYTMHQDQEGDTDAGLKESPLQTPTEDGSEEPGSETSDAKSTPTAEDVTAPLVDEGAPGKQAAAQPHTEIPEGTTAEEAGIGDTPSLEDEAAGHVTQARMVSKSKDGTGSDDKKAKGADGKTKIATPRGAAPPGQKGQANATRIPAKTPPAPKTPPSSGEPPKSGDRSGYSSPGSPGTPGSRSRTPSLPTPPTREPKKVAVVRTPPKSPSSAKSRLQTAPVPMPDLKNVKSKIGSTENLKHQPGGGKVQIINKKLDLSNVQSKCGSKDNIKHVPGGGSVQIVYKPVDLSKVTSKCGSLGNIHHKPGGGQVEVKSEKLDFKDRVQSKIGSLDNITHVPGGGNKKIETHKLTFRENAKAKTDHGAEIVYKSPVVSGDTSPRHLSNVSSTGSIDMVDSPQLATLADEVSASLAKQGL

IC50 [1]	IC50 [2]	SMILES	activity against U87 shCTRL cells compared to U87 shTau cells ([2]; ratio of IC50 values)
> 100 µM	> 100 µM	Nc1nc2ccc3oc(C(=O)O)cc(=O)c3c2s1 [Compound 5]	–
31.7 ± 7.3 µM	1.4 ± 0.5 µM	Nc1nc2ccc3oc(-c4cccc(Oc5ccccc5)c4)cc(=O)c3c2s1 [Compound 2, 2-amino-7-(3-phenoxyphenyl)-9H-chromeno [6,5-d]thiazol-9-one]	3 times
